Test results taken from ChEMBL document CHEMBL1201862, “PubChem BioAssay data set” (2004).
Calls of active or inactive are those of the source.

Key:
[1] = Luminescence Cell-Based Dose Confirmation HTS to Identify Activators of 5'UTR Stem-Loop Driven Alpha-Synuclein mRNA Translation in H4 Neuroglioblastoma Cells. [Related pubchem assays: 1829 (Project Summary), 1814 (Primary HTS)]; format: functional
[2] = tested on: H4; test: Luminescence Cell-Based Dose Response HTS to Identify Activators of 5'UTR Stem-Loop Driven Prion Protein mRNA Translation in H4 Neuroglioblastoma Cells. [Related pubchem assays: 1829 (Project Summary), 1814 (Primary HTS)]; format: functional; settings: Homo sapiens
[3] = Luminescence Cell-Based Dose Response HTS to Identify Activators of Luciferase Translation or Activity in H4 […] Cells. [Related pubchem assays: 1829 (Project Summary), 1814 (Primary HTS)]; format: functional
[4] = target: Voltage-dependent T-type calcium channel subunit alpha-1H (Homo sapiens, UniProt O95180); format: functional;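 further: channel activity triggered by adding a high calcium stimulation buffer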
[5] = target: T1, Polyadenylate-binding protein 1 (Homo sapiens, UniProt P11940); test: PABP1 MLLE–PAM2 binding inhibitor potency, dose response, biochemical, fluorescence polarization, FITC-PAM2 peptide (AID 602259); format: functional; settings: read-out: IC50_Mean
[6] = target: T1, Polyadenylate-binding protein 1; test: PABP1 MLLE–PAM2 interaction inhibitors, dose response, miRNA deadenylation inhibitor project, biochemical, fluorescence polarization, Cy5-PAM2 peptide, secondary (AID 602260); format: functional; settings: read-out: IC50_Mean
[7] = target: T2, Caspase-6 (Homo sapiens, UniProt P55212); test: human caspase-6 inhibitors, dose response, biochemical, VEID-R110 fluorescence, cherry-pick (AID 720632)
T2 sequence (P55212 whole entry): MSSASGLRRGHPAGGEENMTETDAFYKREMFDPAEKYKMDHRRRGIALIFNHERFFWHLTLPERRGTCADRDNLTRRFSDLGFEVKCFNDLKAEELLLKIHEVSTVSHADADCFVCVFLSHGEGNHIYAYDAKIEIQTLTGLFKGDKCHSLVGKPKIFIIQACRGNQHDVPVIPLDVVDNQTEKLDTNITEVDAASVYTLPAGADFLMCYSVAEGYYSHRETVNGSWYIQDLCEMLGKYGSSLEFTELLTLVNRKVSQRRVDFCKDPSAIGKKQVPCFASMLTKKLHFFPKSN

[8] = target: T3, Carboxy-terminal domain RNA polymerase II polypeptide A small phosphatase 1 (Homo sapiens, UniProt Q9GZU7); test: inhibitors of CTDSP1, concentration-response testing, biochemical assay, absorbance-based, actives from ultra-high-throughput screening (AID 540297); format: functional
T3 sequence (Q9GZU7 whole entry): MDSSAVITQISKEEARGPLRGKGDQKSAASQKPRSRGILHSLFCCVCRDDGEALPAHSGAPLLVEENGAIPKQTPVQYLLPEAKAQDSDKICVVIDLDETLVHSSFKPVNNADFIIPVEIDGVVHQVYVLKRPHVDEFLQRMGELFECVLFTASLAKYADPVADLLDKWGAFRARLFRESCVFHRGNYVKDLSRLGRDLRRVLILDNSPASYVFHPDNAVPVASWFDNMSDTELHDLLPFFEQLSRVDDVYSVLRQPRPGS

[9] = target: Cytochrome P450 3A4 (Homo sapiens, UniProt P08684);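 further: CYP3A4 tested as one member of a cytochrome P450 panel screen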
[10] = Shn3 3'UTR reporter inhibitors, dose response, cell-based, Clone20 osteoblasts, firefly luciferase, cherry-picked (AID 624132); format: functional;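 further: firefly luciferase luminescence from reporter carrying the Shn3 3'UTR in osteoblasts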
[11] = control 3'UTR Renilla luciferase suppression, dose response, counter-screen for Shn3 inhibitor project, cell-based, Clone20-Shn3RL, cherry-picked (AID 624133); format: functional
[12] = HepG2 cell cytotoxicity, dose response, cytotoxicity control for Shn3 inhibitor project, CellTiter-Glo, cherry-picked (AID 624134); format: functional, cell-based
[13] = ZM109 Env clade C HIV-1 fusion inhibitors, dose response, HeLa effector, CEM target cells, luciferase, cherry-pick (AID 652058); format: functional, cell-based
[14] = inhibitors of HIV Env-driven cell fusion, dose response, cherry-pick (AID 652057); format: functional, cell-based
[15] = inhibitors of clade B AD8 Env fusion, dose response, cell-based, cherry-pick (AID 652062); format: functional;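 further: luciferase signal from cell-cell fusion driven by HIV-1 clade B AD8 Env; potency is for inhibitors of fusion seen as a drop in luminescence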
[16] = target: T4, Replicative DNA helicase DnaB (Mycobacterium tuberculosis, UniProt P9WMR3); test: DnaB intein splicing inhibitors, dose response, biochemical, cell-free fluorescence (AID 449749); format: functional
T4 sequence (P9WMR3 whole entry): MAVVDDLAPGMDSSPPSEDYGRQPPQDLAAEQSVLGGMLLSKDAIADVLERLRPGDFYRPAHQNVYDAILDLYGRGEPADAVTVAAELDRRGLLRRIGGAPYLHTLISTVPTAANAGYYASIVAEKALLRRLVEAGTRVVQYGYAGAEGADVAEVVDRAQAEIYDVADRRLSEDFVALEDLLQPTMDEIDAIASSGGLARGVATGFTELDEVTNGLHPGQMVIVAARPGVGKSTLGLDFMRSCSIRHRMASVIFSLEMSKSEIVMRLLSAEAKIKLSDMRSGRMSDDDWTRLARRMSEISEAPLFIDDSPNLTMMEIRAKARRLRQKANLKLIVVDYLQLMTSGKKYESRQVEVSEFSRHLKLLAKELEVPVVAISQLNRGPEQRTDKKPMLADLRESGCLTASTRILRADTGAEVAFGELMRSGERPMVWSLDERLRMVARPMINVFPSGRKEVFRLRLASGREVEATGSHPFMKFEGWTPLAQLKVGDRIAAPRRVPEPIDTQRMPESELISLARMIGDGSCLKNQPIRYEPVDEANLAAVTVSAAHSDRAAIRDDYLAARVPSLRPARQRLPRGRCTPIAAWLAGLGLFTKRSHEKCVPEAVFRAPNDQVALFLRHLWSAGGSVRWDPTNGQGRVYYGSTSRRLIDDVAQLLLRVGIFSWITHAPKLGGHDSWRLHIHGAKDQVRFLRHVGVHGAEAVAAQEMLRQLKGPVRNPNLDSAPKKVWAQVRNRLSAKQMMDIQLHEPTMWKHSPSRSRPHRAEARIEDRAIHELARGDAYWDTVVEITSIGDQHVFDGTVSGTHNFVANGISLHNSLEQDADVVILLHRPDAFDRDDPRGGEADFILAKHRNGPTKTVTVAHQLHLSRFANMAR

[17] = target: T5, Protein RecA (Mycobacterium tuberculosis, UniProt P9WHJ3); test: Fluorescence Cell-Free Homogeneous Dose Retest to Identify Inhibitors of RecA-Intein Splicing Activity. [Related pubchem assays (depositor defined):AID2097, AID2223, AID489010, AID492950]; format: functional
T5 sequence (P9WHJ3 whole entry): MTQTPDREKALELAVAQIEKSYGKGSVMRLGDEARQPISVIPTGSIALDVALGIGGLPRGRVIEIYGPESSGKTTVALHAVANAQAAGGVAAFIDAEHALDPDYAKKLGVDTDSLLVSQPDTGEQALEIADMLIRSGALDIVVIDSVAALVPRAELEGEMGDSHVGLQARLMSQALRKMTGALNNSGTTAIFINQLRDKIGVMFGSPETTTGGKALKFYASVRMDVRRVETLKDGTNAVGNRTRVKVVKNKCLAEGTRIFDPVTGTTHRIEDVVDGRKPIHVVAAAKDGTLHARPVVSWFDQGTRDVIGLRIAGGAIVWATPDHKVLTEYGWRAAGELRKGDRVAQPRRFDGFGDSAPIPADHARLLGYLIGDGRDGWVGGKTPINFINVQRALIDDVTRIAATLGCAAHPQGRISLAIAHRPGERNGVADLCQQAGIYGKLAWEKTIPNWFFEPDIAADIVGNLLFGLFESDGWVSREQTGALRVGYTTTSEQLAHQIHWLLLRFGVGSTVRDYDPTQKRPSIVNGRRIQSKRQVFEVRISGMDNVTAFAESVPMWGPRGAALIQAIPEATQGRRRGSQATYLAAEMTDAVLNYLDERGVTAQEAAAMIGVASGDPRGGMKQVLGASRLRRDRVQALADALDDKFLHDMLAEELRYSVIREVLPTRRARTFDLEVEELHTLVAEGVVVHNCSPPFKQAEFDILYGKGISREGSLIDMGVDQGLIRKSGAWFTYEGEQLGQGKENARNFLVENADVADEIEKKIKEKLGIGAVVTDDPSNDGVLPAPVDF

[18] = target: T6, Heat shock factor protein 1 (Mus musculus, UniProt P38532); test: inhibition of MG132-induced HSE-luciferase signal, confirmation, cell-based, NIH3T3, luminescence, dose retest (AID 2382); format: functional;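 further: NIH3T3 fibroblasts with HSF1-driven luciferase reporter stressed by proteasome inhibitor MG132; luminescence from HSF1-driven luciferase expression after 8 hours of MG132 stress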
T6 sequence (P38532 whole entry): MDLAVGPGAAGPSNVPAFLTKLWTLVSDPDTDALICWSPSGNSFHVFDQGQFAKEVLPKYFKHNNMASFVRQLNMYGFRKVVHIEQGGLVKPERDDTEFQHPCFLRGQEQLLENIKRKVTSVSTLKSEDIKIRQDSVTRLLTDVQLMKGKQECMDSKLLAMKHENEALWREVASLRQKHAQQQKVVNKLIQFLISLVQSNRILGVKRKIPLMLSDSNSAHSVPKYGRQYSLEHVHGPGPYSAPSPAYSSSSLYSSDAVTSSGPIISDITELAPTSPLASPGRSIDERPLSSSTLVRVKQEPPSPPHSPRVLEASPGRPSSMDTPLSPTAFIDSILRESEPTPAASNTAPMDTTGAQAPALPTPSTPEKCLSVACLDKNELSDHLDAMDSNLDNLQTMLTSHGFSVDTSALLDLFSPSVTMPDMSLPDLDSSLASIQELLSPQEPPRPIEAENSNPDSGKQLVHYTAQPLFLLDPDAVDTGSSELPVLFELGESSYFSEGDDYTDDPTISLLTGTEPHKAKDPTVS

[19] = target: T7, Microphthalmia-associated transcription factor (Homo sapiens, UniProt O75030); test: TRPM1 promoter luciferase signal decrease, dose response, MITF inhibitor project, cell-based, SK-MEL-5, cherry-picked, set 3 (AID 493073); format: functional
T7 sequence (O75030 whole entry): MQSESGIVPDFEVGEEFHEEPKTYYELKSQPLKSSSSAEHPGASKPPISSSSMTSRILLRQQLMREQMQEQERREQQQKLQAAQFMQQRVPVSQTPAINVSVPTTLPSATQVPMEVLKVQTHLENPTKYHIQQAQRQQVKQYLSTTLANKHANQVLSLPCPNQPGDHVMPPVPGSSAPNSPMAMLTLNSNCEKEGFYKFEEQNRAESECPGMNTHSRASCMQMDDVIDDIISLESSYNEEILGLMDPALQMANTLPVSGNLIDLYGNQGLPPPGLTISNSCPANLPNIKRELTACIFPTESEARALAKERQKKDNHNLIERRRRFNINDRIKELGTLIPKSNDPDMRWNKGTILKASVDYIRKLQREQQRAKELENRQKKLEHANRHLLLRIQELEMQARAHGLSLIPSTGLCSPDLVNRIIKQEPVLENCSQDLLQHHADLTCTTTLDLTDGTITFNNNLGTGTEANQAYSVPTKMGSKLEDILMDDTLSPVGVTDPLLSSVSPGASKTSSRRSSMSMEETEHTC

[20] = tested on: INS1; test: beta cell apoptosis inhibitors, cytokine rescue, dose response, luminescence, retest (AID 449756); format: functional, cell-based; settings: Rattus norvegicus;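 further: cell death triggered by IL-1 beta plus TNF-alpha plus IFN-gamma mixture; protective hits raise ATP signal compared with cytokine alone wells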

T1 sequence (P11940 whole entry): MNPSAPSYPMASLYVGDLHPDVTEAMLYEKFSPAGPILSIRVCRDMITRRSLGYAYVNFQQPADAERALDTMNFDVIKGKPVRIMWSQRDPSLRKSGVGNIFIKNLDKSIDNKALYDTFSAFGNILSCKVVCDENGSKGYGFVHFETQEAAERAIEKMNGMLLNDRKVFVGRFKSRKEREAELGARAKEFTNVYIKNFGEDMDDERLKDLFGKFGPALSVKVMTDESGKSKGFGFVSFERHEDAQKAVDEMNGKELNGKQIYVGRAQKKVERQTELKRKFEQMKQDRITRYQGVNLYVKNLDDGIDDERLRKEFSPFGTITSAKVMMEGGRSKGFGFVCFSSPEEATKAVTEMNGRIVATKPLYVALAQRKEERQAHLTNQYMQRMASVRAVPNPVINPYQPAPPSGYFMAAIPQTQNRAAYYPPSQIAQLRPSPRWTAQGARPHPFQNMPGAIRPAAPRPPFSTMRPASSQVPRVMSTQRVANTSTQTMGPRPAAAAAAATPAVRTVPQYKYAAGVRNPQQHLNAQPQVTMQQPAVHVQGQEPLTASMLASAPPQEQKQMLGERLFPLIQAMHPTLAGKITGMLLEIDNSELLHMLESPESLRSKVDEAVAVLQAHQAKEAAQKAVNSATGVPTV
Sequence of Voltage-dependent T-type calcium channel subunit alpha-1H (O95180 whole entry): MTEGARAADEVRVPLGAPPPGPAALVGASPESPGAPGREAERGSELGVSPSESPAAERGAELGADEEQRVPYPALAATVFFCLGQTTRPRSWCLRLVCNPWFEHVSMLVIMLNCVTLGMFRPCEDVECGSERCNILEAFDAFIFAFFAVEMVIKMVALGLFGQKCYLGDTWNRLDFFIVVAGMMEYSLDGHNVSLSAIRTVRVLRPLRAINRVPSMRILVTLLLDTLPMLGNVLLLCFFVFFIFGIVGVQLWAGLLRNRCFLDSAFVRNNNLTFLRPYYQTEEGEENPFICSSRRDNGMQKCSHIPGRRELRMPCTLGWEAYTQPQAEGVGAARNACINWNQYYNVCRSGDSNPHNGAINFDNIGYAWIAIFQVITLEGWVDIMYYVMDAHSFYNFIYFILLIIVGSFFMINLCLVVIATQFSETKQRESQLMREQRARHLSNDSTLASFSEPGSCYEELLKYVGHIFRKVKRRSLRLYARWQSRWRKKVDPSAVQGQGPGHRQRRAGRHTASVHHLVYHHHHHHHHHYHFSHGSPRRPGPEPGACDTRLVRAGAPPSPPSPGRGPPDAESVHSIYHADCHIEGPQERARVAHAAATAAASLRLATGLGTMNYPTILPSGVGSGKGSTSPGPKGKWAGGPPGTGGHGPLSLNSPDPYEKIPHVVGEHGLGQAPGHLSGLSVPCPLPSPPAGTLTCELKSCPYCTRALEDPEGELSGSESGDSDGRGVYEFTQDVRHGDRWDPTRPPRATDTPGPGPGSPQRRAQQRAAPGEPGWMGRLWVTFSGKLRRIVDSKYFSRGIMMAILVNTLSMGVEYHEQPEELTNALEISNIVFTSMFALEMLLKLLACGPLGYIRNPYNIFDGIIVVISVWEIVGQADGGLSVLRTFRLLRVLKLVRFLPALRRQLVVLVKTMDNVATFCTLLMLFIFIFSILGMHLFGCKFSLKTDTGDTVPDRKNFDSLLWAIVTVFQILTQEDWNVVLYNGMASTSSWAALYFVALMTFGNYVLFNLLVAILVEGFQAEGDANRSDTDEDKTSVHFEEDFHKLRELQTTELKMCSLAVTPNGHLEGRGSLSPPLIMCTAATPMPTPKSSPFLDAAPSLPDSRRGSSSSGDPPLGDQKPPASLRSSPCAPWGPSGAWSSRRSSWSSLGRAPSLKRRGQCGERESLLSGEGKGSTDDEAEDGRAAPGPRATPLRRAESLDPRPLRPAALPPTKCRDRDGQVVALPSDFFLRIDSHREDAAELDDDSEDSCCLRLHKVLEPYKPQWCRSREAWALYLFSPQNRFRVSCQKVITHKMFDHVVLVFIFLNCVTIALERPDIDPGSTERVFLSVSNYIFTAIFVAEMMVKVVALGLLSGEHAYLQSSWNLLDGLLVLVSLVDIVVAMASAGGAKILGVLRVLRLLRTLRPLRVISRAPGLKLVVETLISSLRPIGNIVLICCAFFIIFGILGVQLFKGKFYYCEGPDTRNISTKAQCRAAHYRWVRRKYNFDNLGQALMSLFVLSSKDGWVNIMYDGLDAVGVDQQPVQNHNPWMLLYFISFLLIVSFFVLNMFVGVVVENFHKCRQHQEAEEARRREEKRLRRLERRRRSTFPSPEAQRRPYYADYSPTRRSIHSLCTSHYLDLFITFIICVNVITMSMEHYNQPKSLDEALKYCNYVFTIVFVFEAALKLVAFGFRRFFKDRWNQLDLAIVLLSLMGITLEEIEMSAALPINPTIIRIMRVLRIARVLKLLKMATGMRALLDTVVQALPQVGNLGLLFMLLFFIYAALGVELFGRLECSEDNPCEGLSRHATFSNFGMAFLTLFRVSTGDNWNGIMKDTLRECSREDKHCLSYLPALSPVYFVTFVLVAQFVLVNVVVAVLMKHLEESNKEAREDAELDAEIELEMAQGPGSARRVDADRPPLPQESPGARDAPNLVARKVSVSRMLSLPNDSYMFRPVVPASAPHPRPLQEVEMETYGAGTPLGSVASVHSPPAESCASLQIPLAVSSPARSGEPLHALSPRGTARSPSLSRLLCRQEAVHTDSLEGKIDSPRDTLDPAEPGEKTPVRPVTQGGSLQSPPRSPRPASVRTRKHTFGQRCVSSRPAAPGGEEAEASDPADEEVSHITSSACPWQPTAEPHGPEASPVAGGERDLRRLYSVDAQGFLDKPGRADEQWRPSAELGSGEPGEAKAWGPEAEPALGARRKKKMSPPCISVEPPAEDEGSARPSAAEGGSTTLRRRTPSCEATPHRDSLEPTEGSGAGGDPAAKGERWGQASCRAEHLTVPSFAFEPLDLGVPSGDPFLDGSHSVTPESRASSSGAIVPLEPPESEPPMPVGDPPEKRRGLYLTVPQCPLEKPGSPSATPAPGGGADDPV
Sequence of Cytochrome P450 3A4 (P08684 whole entry): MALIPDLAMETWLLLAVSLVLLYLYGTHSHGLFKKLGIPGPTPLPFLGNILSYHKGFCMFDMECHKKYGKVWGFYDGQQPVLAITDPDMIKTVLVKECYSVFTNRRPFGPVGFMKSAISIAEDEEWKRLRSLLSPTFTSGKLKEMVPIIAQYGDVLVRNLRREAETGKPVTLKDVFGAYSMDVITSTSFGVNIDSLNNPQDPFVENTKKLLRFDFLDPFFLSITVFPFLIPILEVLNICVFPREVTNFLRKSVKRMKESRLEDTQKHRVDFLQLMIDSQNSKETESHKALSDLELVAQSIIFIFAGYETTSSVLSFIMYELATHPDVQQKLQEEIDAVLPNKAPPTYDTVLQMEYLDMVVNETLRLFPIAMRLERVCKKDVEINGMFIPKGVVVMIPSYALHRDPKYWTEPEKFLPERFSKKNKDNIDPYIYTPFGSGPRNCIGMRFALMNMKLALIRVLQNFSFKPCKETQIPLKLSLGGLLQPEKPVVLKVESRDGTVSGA

Cn1c(CSc2nc3ccccc3s2)nc2ccccc21
EC50 [1]: 43.2 µM (active)
EC50 [2]: 19.9 µM (active)
EC50 [3]: 2.94 µM (active)
EC50 [4]: 17.4 µM (active)

N=c1c(C(=O)NCc2ccco2)cc2c(=O)n3ccccc3nc2n1CC1CCCO1 (stereo unspecified)
IC50 [5]: 39.5 µM (inactive)
IC50 [6]: > 66 µM (inactive)

Cc1ccc(S(=O)(=O)Nc2csc(C)c2C(=O)O)cc1
AC50 [7]: 4.99 µM (active)
IC50 [8]: 3.94 µM (active)

Cc1nc(N)nc(S)c1CCCNc1ccccc1
IC50 [5]: > 66 µM (inactive)
IC50 [6]: > 66 µM (inactive)
AC50 [9]: 6.31 µM (inconclusive)

O=S(=O)(Nc1ccccc1Cl)c1cccc2nsnc12
AC50 [7]: 25.9 µM (active)
IC50 [8]: 11.2 µM (active)

CCN(CC)S(=O)(=O)c1ccc(N(C)Cc2ccc(C(F)(F)F)cc2)nc1
AC50 [10]: 5.85 µM (active)
AC50 [11]: 25.9 µM (active)
AC50 [12]: 41.1 µM (active)
EC50 [4]: 10.4 µM (active)

C[C@H](CO)N1C[C@H](C)[C@H](CN(C)S(=O)(=O)c2ccc(F)cc2)Oc2cc(Br)ccc2S1(=O)=O
AC50 [13]: 1.13 µM (active)
AC50 [14]: 1.5 µM (active)
AC50 [15]: 4.74 µM (active)

N#CCCN(C(=O)CSc1ccc2c(c1)OCCO2)c1ccccc1
IC50 [5]: > 66 µM (inactive)
IC50 [6]: > 66 µM (inactive)

CO[C@H]1CN(C)C(=O)c2ccc(NS(=O)(=O)c3cccc(Cl)c3)cc2OC[C@@H](C)NC[C@H]1C
AC50 [7]: 19.7 µM (active)

CC(=O)c1c(Cl)nc2cccc3c2c1-c1ccccc1C3=O
IC50 [5]: 55.6 µM (inactive)
AC50 [16]: > 380 µM (inactive)
IC50 [6]: > 66 µM (inactive)
EC50 [17]: 297 nM (inconclusive)

CCCC#Cc1ccc2c(c1)O[C@H](CN(C)S(=O)(=O)c1cccc(F)c1)[C@H](C)CN([C@@H](C)CO)S2(=O)=O
AC50 [13]: 15.2 µM (active)
AC50 [14]: 25 µM (active)
AC50 [15]: 25.9 µM (active)

c1ccc2c(c1)nnn2Cc1nnc2sc(-c3ccc4c(c3)OCCO4)nn12
IC50 [5]: > 66 µM (inactive)
IC50 [6]: > 66 µM (inactive)

C[C@@H]1CN([C@@H](C)CO)C(=O)c2cccc(NC(=O)C3CCCCC3)c2O[C@H]1CN(C)Cc1ccccc1
AC50 [13]: 10.8 µM (active)
AC50 [14]: 39.6 µM (active)
AC50 [15]: 22.1 µM (active)

CCOC(=O)C1CCCN(C(=O)c2ccccc2SCCOC)C1 (stereo unspecified)
IC50 [5]: > 66 µM (inactive)
IC50 [6]: > 66 µM (inactive)

O=C(C1CCCN(S(=O)(=O)c2ccc(Cl)cc2)C1)N(Cc1cccs1)C1CC1 (stereo unspecified)
EC50 [18]: > 195 µM (not active)
EC50 [4]: 6.78 µM (active)

NC(=O)c1cc([N+](=O)[O-])ccc1NCc1ccc(N)cc1
AC50 [19]: 1.41 µM (active)

CN1/C(=C\C(=O)CN2C(=O)NC3(CCCCCC3)C2=O)C(C)(C)c2ccccc21
AC50 [10]: 2.66 µM (active)
AC50 [20]: 4.56 µM (active)
AC50 [11]: 12.3 µM (active)
EC50 [4]: 27.4 µM (active)

O=C(NC(Sc1ccc(Cl)cc1)C(=O)O)c1ccccc1 (stereo unspecified)
IC50 [5]: > 66 µM (inactive)
IC50 [6]: > 66 µM (inactive)
